{"source": "patent US20240335490A1", "about": "“COMPOSITION FOR PREVENTING OR AMELIORATING LOCOMOTIVE SYNDROME” (DIC Corporation, priority 2021, published 2024)", "key": {"[1]": {"test_system": "male and female subjects who feel a decline in mobility", "experiment": "Mobility ameliorating effect questionnaire (0 to 10 scale, ease of walking)", "format": "in vivo, human", "conditions": "conclusion from the results of Table 1", "procedure": "(§1) Ingredients were mixed at proportions shown in Table 1 below and subjected to tablet molding to produce tableted products in Examples 1 to 3 and Comparative Examples 1 and 2 in the present invention. As the blended ingredients, commercially available products were used. In order to uniform appearance, Blue No. 2 was added to adjust the color. In each of Examples and Comparative Examples, six tableted products were produced such that the daily intake was 1,800 mg.\n(§2) Twenty male and female subjects who feel a decline in mobility in their 40s to 70s were divided into five groups of four subjects each. In each group, two tablets in each of Examples 1, 2, and 3 and Comparative Examples 1 and 2 were taken three times a day in the morning, noon, and evening for four weeks. Two weeks and four weeks after the initiation of the test, the following questionnaires were carried out.\nAn equal-interval scale of 0 to 10 was prepared, and a score of 5 that is the middle means no change, a score closer to 0 means that walking is difficult, and a score closer to 10 means that walking is easy. The subjects were made to plot the experience evaluation. Scores plotted by the subjects were considered to be test evaluation."}, "[2]": {"test_system": "male and female subjects who feel a decline in mobility", "experiment": "Joint pain reducing effect questionnaire (0 to 10 scale, pain felt in walking)", "format": "in vivo, human", "conditions": "conclusion from the results of Table 1", "procedure": "as §1, §2\nAn equal-interval scale of 0 to 10 was prepared, and a score of 5 that is the middle means before the initiation of the test or no change, a score closer to 0 means deterioration, and a score closer to 10 means amelioration. The subjects were made to plot the experience evaluation of the joint pain reducing effect in which the subjects felt in walking. Scores plotted by the subjects were considered to be test evaluation."}}}
{"substance": "phycocyanin", "values": [{"measurement": "mobility ameliorating effect (conclusion in words)", "setting": "[1]", "result": "recognized to exert"}, {"measurement": "effect on the joint (conclusion in words)", "setting": "[2]", "result": "recognized to exert the effect on the joint"}]}
